ChEMBL document CHEMBL1201862, “PubChem BioAssay data set” (2004)
Calls of active or inactive are those of the source.

Key:
Large T antigen = Large T antigen (Simian virus 40, UniProt P03070); format: functional, Betapolyomavirus macacae;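 further: Confirmatory-stage PubChem screen for compounds that inhibit SV40 T antigen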
[1] = target: T1, DNA dC->dU-editing enzyme APOBEC-3A (Homo sapiens, UniProt P31941); assay: A3A deaminase inhibition for selectivity – biochemical, dose response (AID 504722); format: functional
T1 sequence (P31941 whole entry): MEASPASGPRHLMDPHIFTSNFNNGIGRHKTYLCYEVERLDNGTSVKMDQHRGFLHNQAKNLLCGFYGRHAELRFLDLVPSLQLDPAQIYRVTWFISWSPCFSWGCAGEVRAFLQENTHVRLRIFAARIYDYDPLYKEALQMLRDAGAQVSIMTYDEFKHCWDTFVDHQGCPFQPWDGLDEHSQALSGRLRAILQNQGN

[2] = target: T2, DNA dC->dU-editing enzyme APOBEC-3G (Homo sapiens, UniProt Q9HC16); assay: Dose Response confirmation of small molecule APOBEC3G DNA Deaminase Inhibitors via a fluorescence-based single-stranded DNA deaminase assay. [Related pubchem assays (depositor defined):AID493012, AID493028]; format: functional
T2 sequence (Q9HC16 whole entry): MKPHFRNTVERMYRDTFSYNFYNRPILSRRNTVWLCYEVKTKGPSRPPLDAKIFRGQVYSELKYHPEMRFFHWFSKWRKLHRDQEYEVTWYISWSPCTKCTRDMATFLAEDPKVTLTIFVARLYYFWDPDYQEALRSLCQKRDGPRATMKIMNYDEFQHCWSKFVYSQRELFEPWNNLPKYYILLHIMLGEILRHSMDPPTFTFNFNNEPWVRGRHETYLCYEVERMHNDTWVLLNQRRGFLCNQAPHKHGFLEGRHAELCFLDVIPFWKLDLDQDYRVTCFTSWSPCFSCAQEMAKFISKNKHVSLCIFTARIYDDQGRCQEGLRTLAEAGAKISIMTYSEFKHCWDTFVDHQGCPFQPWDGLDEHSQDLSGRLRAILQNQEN

[3] = target: T1, DNA dC->dU-editing enzyme APOBEC-3A; assay: SAR analysis of small molecule inhibitors of APOBEC3A DNA Deaminase via a fluorescence-based single-stranded DNA deaminase assay - Set 2.; format: functional; conditions: read-out: IC50_Mean
[4] = target: T2, DNA dC->dU-editing enzyme APOBEC-3G; assay: SAR analysis of small molecule inhibitors of APOBEC3G DNA Deaminase via a fluorescence-based single-stranded DNA deaminase assay - Set 2.; format: functional; conditions: read-out: IC50_Mean
[5] = target: T2, DNA dC->dU-editing enzyme APOBEC-3G; assay: inhibition of APOBEC3G ssDNA deamination – biochemical, fluorescence, single-stranded DNA substrate, SAR follow-up (AID 602136); format: functional; conditions: read-out: IC50_Mean
[6] = target: T1, DNA dC->dU-editing enzyme APOBEC-3A; assay: SAR analysis of small molecule inhibitors of APOBEC3A DNA Deaminase via a fluorescence-based single-stranded DNA deaminase assay.; format: functional; conditions: read-out: IC50_Mean
[7] = luciferase reporter signal suppression in cells – H4 neuroglioma cells, luminescence, dose response (AID 1990); format: functional, cell-based
BJ [8] = assay: BJ-TERT fibroblast viability loss – cell-based, RAS-independent, luminescence, dose response (AID 1933); format: functional; conditions: Homo sapiens
[9] = Luminescence Cell-Based Dose Response HTS to Identify Inhibitors of 5'UTR Stem-Loop Driven Prion Protein mRNA Translation in H4 Neuroglioblastoma Cells. [Related pubchem assays: 1827 (Project Summary), 1813 (Primary HTS)]; format: functional
[10] = alpha-synuclein stem-loop luciferase translation blockers – H4 neuroglioma cells, luminescence, confirmation (AID 1988); format: functional, cell-based
BJ [11] = assay: cells; format: functional, cell-based; conditions: Homo sapiens
J774.A1 = assay: Confirmation of image-based Screening Assay for Inhibitors of Phagocytosis. [Related pubchem assays (depositor defined):AID1029, AID1643]; format: functional, cell-based; conditions: Mus musculus
BJ [12] = assay: BJ-TERT-LT-ST fibroblast viability loss – cell-based, RAS-independent, luminescence, dose response (AID 1935); format: functional; conditions: Homo sapiens;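 further: BJ fibroblasts immortalized with TERT plus LT and ST oncogenes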
[13] = DRD fibroblast viability loss – cell-based, non-viral oncogenic, luminescence, dose response (AID 1934); format: functional; conditions: Homo sapiens
[14] = target: E3 ubiquitin-protein ligase Mdm2/Protein Mdm4 (Homo sapiens, UniProt O15151+Q00987); assay: disruption of Mdm2/MdmX protein binding – luminescence detection, dose response (AID 504593); format: functional
Chain of E3 ubiquitin-protein ligase Mdm2/Protein Mdm4 (Q00987 whole entry): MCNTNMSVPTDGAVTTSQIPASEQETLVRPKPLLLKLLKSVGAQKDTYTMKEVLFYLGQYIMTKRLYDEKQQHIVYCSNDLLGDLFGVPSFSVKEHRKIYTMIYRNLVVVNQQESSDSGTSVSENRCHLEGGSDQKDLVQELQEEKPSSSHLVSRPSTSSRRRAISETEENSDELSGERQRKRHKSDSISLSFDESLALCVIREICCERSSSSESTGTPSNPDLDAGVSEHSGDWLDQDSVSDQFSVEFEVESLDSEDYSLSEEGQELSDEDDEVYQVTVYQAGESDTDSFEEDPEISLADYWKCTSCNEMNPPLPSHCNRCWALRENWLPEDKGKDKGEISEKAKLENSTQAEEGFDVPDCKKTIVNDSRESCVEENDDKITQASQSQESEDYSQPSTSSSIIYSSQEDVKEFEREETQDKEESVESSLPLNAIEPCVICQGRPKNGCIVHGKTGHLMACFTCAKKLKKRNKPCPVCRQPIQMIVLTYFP
Chain of E3 ubiquitin-protein ligase Mdm2/Protein Mdm4 (O15151 whole entry): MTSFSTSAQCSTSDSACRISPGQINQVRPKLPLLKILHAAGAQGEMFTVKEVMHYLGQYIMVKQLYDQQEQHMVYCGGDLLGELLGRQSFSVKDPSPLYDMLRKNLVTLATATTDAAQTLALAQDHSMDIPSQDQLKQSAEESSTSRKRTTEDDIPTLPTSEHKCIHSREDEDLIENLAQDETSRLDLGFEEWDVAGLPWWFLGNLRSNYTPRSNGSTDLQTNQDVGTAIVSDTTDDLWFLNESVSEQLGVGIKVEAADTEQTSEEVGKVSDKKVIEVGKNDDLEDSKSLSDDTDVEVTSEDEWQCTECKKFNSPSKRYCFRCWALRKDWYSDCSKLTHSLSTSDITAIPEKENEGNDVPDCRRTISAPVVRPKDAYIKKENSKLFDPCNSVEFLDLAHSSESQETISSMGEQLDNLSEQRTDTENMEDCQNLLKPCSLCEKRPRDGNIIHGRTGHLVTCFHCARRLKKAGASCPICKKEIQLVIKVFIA

[15] = HEK-293T viability loss after treatment – luminescence, T-cell screen hits, cytotoxicity control for TCR NF-kB inhibitor project, dose response (AID 489026); format: functional, cell-based;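 further: cells exposed to compound about 14 hours before the viability readout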
[16] = target: T3, Replicative DNA helicase DnaB (Mycobacterium tuberculosis, UniProt P9WMR3); assay: DnaB intein splicing inhibitors, dose response, biochemical, cell-free fluorescence (AID 449749); format: functional
T3 sequence (P9WMR3 whole entry): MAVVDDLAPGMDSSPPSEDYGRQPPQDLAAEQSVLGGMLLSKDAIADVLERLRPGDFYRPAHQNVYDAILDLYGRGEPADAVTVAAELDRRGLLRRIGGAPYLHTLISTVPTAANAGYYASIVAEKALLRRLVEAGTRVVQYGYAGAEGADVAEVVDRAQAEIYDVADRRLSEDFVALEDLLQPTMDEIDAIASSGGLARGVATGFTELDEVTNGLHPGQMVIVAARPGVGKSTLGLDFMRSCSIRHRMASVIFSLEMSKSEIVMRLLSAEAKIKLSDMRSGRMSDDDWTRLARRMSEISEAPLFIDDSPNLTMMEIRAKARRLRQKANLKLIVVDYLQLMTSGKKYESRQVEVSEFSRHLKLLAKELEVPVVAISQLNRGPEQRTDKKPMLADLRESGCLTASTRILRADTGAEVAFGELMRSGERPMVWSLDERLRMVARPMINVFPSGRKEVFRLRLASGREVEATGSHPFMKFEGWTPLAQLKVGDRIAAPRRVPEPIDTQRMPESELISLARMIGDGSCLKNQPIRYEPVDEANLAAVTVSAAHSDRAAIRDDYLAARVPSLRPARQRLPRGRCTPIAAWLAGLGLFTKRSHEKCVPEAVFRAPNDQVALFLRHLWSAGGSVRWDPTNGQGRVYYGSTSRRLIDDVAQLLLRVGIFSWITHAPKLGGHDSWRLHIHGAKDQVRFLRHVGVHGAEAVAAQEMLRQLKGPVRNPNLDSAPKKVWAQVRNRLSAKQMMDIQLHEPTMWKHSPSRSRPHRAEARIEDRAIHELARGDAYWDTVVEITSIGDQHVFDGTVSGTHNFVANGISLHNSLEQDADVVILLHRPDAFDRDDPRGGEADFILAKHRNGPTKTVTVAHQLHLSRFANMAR

BJ [17] = assay: growth inhibition of engineered Ras-driven BJ cells – cell-based, alamar blue fluorescence, cherrypicked samples, dose response (AID 2631); format: functional; conditions: Homo sapiens;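 further: confirmatory dose-response assay in RAS-dependent BJ fibroblasts engineered with TERT, LT and ST, with cytotoxicity read by fluorescence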
Protein RecA = target: T4, Protein RecA (Mycobacterium tuberculosis, UniProt P9WHJ3); assay: Fluorescence Cell-Free Homogeneous Dose Retest to Identify Inhibitors of RecA-Intein Splicing Activity. [Related pubchem assays (depositor defined):AID2097, AID2223, AID489010, AID492950]; format: functional
T4 sequence (P9WHJ3 whole entry): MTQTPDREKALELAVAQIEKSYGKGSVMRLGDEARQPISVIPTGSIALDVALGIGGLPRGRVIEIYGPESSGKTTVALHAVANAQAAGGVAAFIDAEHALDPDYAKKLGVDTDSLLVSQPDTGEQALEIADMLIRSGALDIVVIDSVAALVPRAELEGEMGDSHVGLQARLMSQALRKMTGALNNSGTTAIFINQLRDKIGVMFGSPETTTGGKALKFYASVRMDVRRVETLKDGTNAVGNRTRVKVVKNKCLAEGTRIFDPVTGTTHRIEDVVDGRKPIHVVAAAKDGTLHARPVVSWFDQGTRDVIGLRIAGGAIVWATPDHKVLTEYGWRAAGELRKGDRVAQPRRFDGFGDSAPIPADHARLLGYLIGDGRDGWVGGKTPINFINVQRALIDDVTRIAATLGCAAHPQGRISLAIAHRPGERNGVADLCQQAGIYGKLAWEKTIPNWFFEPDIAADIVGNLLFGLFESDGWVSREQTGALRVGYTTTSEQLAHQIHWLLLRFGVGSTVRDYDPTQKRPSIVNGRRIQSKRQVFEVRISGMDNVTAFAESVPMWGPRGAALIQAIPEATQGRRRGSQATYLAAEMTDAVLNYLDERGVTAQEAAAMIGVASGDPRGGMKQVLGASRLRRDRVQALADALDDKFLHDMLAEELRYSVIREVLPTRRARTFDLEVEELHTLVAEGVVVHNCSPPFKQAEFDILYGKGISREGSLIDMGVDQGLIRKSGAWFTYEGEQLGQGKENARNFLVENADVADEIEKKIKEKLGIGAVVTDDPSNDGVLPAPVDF

[18] = Luminescence Cell-Based Dose Retest to Confirm Inhibitors of Cancer Stem Cells. [Related pubchem assays (depositor defined):AID2717, AID2721]; format: functional; conditions: Homo sapiens
[19] = target: 1-acylglycerol-3-phosphate O-acyltransferase ABHD5/Perilipin-5 (Homo sapiens, UniProt Q00G26+Q8WTS1); assay: Luminescence-based biochemical high throughput dose response assay for inhibitors of the interaction of the lipase co-activator protein, abhydrolase domain containing 5 (ABHD5) with perilipin-5 (MLDP; PLIN5) (2K validation set). [Related pubchem assays (depositor defined):AID493035, AID493241]
Perilipin-1/ABHD5 = Perilipin-1/ABHD5 (Homo sapiens, UniProt O60240+Q8WTS1); assay: Luminescence-based biochemical high throughput dose response assay for inhibitors of the interaction of the lipase co-activator protein, abhydrolase domain containing 5 (ABHD5) with perilipin-1 (PLIN1) (2K validation set). [Related pubchem assays (depositor defined):AID493027, AID493057]
[20] = target: Neurotensin receptor type 1 (Homo sapiens, UniProt P30989); format: functional;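 further: Image-based confirmatory dose-response assay measuring agonist activity at NTR1; NTR1-expressing U2OS osteosarcoma cells imaged for beta-arrestin GFP spot formation; agonist potency where compounds increase beta-arrestin recruitment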
Chain of Neurotensin receptor type 1 (P30989 whole entry): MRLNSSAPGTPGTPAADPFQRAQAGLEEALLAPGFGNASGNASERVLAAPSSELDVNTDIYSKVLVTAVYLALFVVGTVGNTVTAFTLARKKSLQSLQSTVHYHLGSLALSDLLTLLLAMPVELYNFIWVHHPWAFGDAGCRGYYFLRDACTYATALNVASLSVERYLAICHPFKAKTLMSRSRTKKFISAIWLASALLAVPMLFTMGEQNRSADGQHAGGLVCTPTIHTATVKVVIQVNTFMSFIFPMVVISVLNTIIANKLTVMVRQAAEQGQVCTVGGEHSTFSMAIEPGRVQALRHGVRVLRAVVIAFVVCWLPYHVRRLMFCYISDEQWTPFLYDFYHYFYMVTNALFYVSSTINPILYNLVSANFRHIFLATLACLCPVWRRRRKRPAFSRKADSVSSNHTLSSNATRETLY

X-box-binding protein 1 = X-box-binding protein 1 (Homo sapiens, UniProt P17861); format: functional, Cricetulus griseus;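 further: confirmatory dose-response counter-screen serving a CHOP assay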
Chain of X-box-binding protein 1 (P17861 whole entry): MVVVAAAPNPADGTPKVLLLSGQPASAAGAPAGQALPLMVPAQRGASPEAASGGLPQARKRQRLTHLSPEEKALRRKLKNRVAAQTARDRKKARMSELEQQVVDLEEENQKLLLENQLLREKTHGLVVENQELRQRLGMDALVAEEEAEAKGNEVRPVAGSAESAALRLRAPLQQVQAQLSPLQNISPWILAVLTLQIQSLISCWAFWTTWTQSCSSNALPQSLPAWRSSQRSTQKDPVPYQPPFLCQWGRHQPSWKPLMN

[21] = target: Alkaline phosphatase, placental type (Homo sapiens, UniProt P05187); assay: human placental alkaline phosphatase inhibition – biochemical, luminescence, confirmation (AID 1512); format: functional
[22] = target: FAD-linked sulfhydryl oxidase ALR (Homo sapiens, UniProt P55789); assay: ALR-catalysed DTT oxidation blockers – biochemical, H2O2 detection, luminescence, cherry-pick, dose response (AID 493248)
Chain of FAD-linked sulfhydryl oxidase ALR (P55789 whole entry): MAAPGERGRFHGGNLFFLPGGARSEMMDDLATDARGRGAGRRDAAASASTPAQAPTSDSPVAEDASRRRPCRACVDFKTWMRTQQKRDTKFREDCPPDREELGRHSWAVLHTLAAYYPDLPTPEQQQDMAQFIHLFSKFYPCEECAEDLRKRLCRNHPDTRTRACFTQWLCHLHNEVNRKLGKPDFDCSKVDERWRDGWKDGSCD

Mu-type opioid receptor = Mu-type opioid receptor (Homo sapiens, UniProt P35372); assay: SAR Analysis of Antagonists of the MOR Receptor using an Image-Based Assay - Set 3. [Related pubchem assays (depositor defined):AID1777, AID1785, AID1786, AID1966, AID2133, AID2136, AID2284, AID2285, AID2420]; format: functional
[23] = target: Delta-type opioid receptor (Homo sapiens, UniProt P41143); assay: SAR Analysis of Antagonists of the DOR Receptor using an Image-Based Assay - Set 3. [Related pubchem assays (depositor defined):AID1777, AID1785]; format: functional;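 further: U2OS cells expressing DOR1 and beta-arrestin GFP stimulated with 100 nM SNC80; imaging of GFP-tagged beta-arrestin moving into spots after receptor activation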
Chain of Delta-type opioid receptor (P41143 whole entry): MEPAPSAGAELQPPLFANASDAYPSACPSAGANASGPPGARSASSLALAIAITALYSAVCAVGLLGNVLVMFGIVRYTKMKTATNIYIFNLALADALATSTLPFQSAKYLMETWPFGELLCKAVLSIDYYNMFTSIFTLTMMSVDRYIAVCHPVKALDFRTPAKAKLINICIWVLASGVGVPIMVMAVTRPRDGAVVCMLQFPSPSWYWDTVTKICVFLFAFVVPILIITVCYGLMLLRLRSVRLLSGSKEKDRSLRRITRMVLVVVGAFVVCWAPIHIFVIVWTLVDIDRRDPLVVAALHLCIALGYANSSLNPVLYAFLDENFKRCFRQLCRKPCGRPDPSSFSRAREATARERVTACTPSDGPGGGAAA

[24] = target: T5, Kappa-type opioid receptor (Homo sapiens, UniProt P41145); assay: SAR analysis of small molecule antagonists of the kappa opioid receptor via a luminescent beta-arrestin assay - Set 3. [Related pubchem assays (depositor defined):AID1777, AID1778, AID1785, AID1786, AID1966, AID2133, AID2136, AID2285, AID2495]; format: functional
T5 sequence (P41145 whole entry): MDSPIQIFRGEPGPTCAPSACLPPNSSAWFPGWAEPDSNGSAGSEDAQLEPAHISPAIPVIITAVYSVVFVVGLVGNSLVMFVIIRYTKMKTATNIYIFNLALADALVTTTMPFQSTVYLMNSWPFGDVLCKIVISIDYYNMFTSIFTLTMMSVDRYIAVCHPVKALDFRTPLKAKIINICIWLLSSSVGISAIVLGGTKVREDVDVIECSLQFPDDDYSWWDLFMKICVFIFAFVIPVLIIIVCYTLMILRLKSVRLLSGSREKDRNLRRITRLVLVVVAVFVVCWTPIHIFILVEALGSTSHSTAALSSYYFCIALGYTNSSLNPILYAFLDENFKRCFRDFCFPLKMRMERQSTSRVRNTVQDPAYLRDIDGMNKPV

[25] = target: T5, Kappa-type opioid receptor; assay: SAR analysis of Antagonists of the Kappa Opioid Receptor (KOR) using an Image-Based Assay - Set 4. [Related pubchem assays (depositor defined):AID1777, AID1785]; format: functional
[26] = target: G-protein coupled receptor 35 (Homo sapiens, UniProt Q9HC97); assay: SAR analysis of Antagonists of the GPR35 Receptor using an Image-Based Assay - Set 5. [Related pubchem assays (depositor defined):AID2058, AID2079]; format: functional
[27] = target: G-protein coupled receptor 55 (Homo sapiens, UniProt Q9Y2T6); assay: SAR Analysis of Selective Antagonists of GPR55 using an Image-Based Assay - Set 3. [Related pubchem assays (depositor defined):AID2058, AID2079]; format: functional
Hexokinase = Hexokinase (Trypanosoma brucei, UniProt Q38C41); assay: Confirmation assay for inhibitors of Trypanosoma brucei hexokinase 1-Analogue-first series. [Related pubchem assays (depositor defined):AID1430, AID1632, AID2516, AID2560, AID2579, AID2600, AID449725, AID492951]; format: functional
Integrin alpha-4 = Integrin alpha-4 (Homo sapiens, UniProt P13612); assay: allosteric modulators of alpha4 integrin VLA-4 – cell-based, LIBS antibody binding, flow cytometry, SAR follow-up (AID 488791); format: functional
Chain of Integrin alpha-4 (P13612 whole entry): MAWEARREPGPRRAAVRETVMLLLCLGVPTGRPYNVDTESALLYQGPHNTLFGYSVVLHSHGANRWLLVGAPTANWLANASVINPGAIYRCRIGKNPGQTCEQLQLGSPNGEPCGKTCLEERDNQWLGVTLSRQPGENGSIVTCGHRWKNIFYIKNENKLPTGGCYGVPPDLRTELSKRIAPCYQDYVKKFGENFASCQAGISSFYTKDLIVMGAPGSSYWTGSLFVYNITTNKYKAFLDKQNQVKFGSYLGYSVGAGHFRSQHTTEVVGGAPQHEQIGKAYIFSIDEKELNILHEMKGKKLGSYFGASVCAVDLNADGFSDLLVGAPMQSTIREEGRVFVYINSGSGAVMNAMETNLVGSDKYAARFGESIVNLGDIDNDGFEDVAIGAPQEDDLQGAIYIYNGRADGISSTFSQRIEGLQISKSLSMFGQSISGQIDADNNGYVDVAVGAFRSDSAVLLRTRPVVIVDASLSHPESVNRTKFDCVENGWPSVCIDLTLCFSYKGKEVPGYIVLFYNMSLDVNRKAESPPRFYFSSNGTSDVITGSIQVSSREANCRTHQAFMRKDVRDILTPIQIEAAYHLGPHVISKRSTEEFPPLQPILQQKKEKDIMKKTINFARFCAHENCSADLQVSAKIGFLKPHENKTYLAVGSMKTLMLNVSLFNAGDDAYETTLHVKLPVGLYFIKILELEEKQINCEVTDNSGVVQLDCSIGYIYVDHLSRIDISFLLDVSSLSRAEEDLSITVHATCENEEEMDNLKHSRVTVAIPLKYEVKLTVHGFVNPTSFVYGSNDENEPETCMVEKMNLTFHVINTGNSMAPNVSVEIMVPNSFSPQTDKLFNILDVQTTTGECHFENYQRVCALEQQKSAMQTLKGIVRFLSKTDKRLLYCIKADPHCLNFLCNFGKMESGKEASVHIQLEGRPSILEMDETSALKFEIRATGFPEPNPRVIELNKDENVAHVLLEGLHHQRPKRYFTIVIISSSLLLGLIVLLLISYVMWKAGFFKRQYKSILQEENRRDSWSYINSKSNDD

Chain of Large T antigen (P03070 whole entry): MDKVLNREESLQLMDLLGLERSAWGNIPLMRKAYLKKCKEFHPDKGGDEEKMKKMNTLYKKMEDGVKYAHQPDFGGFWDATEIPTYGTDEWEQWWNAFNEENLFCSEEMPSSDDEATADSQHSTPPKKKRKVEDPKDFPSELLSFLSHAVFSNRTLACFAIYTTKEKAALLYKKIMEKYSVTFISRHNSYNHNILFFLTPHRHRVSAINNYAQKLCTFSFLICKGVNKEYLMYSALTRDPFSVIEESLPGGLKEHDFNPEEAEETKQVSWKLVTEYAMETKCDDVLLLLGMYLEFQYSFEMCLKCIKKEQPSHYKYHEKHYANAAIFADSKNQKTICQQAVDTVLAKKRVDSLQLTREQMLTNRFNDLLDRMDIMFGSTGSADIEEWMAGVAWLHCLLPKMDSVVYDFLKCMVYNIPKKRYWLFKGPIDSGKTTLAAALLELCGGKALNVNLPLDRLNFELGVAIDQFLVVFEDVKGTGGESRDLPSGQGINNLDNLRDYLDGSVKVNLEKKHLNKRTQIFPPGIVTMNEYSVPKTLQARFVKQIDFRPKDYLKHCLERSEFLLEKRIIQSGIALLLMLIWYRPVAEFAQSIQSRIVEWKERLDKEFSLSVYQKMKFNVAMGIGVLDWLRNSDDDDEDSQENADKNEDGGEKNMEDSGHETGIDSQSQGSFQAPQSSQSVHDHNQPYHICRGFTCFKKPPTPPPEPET

Structure (SMILES): CCCCn1c(=O)c2ccccc2n2c(S)nnc12
- IC50 (Large T antigen): 11.5 µM (active)
- IC50 [1]: > 100 µM (inactive)
- IC50 [2]: 1.7 µM (active)
- IC50 [3]: > 99 µM (inactive)
- IC50 [4]: 0.345 µM (active)
- IC50 [5]: 2.72 µM (active)
- IC50 [6]: > 99 µM (inactive)

Structure (SMILES): Cn1nc([N+](=O)[O-])nc1Sc1nnc(-c2ccccc2)o1
- EC50 [7]: > 120 µM (not active)
- EC50 (BJ [8]): 3.15 µM (active)
- EC50 [9]: > 120 µM (not active)
- EC50 [10]: 10.2 µM (active)
- EC50 (BJ [11]): 2.52 µM (active)
- IC50 (J774.A1): 0.438 µM (active)
- EC50 (BJ [12]): 43.9 µM (inconclusive)
- EC50 [13]: 11.1 µM (active)
- IC50 [14]: 6.19 µM (active)
- IC50 [15]: > 80 µM (inactive)
- AC50 [16]: 40.3 µM (active)
- EC50 (BJ [17]): 0.556 µM (active)
- EC50 (Protein RecA): 10.9 µM (active)

Structure (SMILES): O=C(Nc1ccc(Oc2c(F)c(F)c(F)c(F)c2F)cc1)OC1CCN2Cc3ccccc3N=C12 (configuration not stated)
- EC50 [9]: 12 µM (active)
- EC50 [10]: 8.72 µM (active)
- AC50 [18]: 0.888 µM (active)
- IC50 [19]: 9.84 µM (active)
- IC50 (Perilipin-1/ABHD5): 8.78 µM (active)
- EC50 [20]: 19 µM (active)
- Absolute IC50 (XBP1) (X-box-binding protein 1): 10 µM

Structure (SMILES): O=C(NNc1ccccn1)C(=O)NNS(=O)(=O)c1ccc(Cl)cc1
- IC50 [21]: > 100 µM (inactive)
- AC50 [22]: 0.786 µM (active)

Structure (SMILES): COc1ccc(N2CCN(CCCNC(=O)Cn3c(=O)c4cccn4c4cc(Br)cnc43)CC2)c(OC)c1
- IC50 (Mu-type opioid receptor): 10.2 µM (inactive)
- IC50 [23]: > 32 µM (inactive)
- IC50 [24]: 2.82 µM (active)
- IC50 [25]: 3.02 µM (active)

Structure (SMILES): COC(=O)c1cnn(-c2ccccc2)c1/C=N/NC(=S)Nc1ccccc1
- IC50 [26]: 1.01 µM (active)
- IC50 [27]: 15.1 µM (inactive)

Structure (SMILES): O=C(O)c1ccc(Cl)cc1NC(=O)N1CCOCC1
- IC50 (Hexokinase): > 25 µM (inactive)

Structure (SMILES): Cc1ccc(NC(=O)c2cc(N3C(=O)CCC3=O)ccc2N2CCOCC2)cc1Cl
- EC50 (Integrin alpha-4): 23.3 µM (active)
